Square brackets hold non-standard residues; d marks the D form. Peptide text beside a SMILES is read from it. * marks the point of attachment. Sta = CC(C)C[C@H](N)[C@@H](O)CC(=O)O; Isovaleryl = CC(C)CC(=O)*
What was measured:
Carcinoma cell trouase = assay: Inhibition and re-activation of carcinoma cell trouase; type: biochemical; conditions: for inhibition of trouase: carcinoma cell trouase
[1] = Acute toxicity after intravenous injection in mice; type: in vivo; conditions: iv bolus of 250 mg/kg (Dox-HCl eq.), three to five mice per group
trouase = assay: Trouase cleavage of N-capped peptidyl-daunorubicin (defining characteristic); type: biochemical; conditions: under appropriate assay conditions
Excerpt: Trouase is the enzyme which is thought to be critical for specific activation of prodrug at the target tissue.

[2] = Aggregation: filtration through Centricon filter units of different MWCO; type: physicochemical; conditions: 17.4 µMol/ml in distilled water, 2 hr at 1500g; for 3000 MWCO Filt.: quantitated at λ475 nm
Excerpt: Sci., 73(6):766-770 (1984). Confalonieri, C. et al., The use of new laser particle sizer and shape analyser to detect and evaluate gelatinous microparticles suspended in reconstituted anthracycline infusion solutions, J. Pharmaceut. Biomed. Anal., 9(1):1-8 (1991). […] Each filter unit was centrifuged for 2 hr at 1500g force. […]

[3] = system: LS-174T human colorectal carcinoma; assay: Nude mouse xenograft model, LS-174T; conditions: repeated administration

## aminoethylbenzene-sufonate
Carcinoma cell trouase
  inhibition of trouase: not

## O=C(O)CN(CCN(CC(=O)O)CC(=O)O)CC(=O)O [EDTA]
Carcinoma cell trouase
  inhibition of trouase: inhibited

## c1cnc2c(c1)ccc1cccnc12 [1,10-phenanthroline]
Carcinoma cell trouase
  inhibition of trouase: inhibited

## CC(=O)N[C@@H](CC(C)C)C(=O)N[C@@H](CC(C)C)C(=O)N[C@H](C=O)CCCNC(=N)N [leupeptin]
Carcinoma cell trouase
  inhibition of trouase: not

## CO[C@@H]1[C@H](OC(=O)/C=C/C=C/C=C/C=C/C(=O)O)CC[C@]2(CO2)[C@H]1[C@@]1(C)O[C@@H]1CC=C(C)C [fumagillin]
Carcinoma cell trouase
  inhibition of trouase: not

## CCCNC(=O)[C@H]1O[C@@H]1C(=O)N[C@H](C(=O)N1CCC[C@H]1C(=O)O)[C@@H](C)CC [CA074]
Carcinoma cell trouase
  inhibition of trouase: not

## manganese
Carcinoma cell trouase
  concentration that re-activates EDTA inactivated trouase: 50 to 1000 µM

## cobalt
Carcinoma cell trouase
  concentration that re-activates EDTA inactivated trouase: 50 to 100 µM

## COc1cccc2c1C(=O)c1c(O)c3c(c(O)c1C2=O)CC(O)(C(=O)CO)CC3OC1CC(NC(=O)C(CC(C)C)NC(=O)C(C)NC(=O)C(CC(C)C)NC(=O)CCNC(=O)CCCC(=O)O)C(O)C(C)O1 (stereo not drawn) [glutaryl βAlaLeuAlaLeu-Dox, Gl-β-Ala-Leu-Ala-Leu-Dox]
[1]
  survival: all animals survived up to 8 days

## cupric cations
Carcinoma cell trouase
  re-activation of EDTA inactivated trouase: not

## zinc
Carcinoma cell trouase
  re-activation of EDTA inactivated trouase: not

## COc1cccc2c1C(=O)c1c(O)c3c(c(O)c1C2=O)C[C@@](O)(C(C)=O)C[C@@H]3O[C@H]1C[C@H](NC(=O)[C@H](CC(C)C)NC(=O)[C@H](C)NC(=O)[C@H](CC(C)C)NC(=O)CCNC(=O)CCC(=O)O)[C@H](O)[C@H](C)O1 [succinyl-βAlaLeuAlaLeu-Daunorubicin, Suc-β-Ala-Leu-Ala-Leu-Dnr]
trouase
  cleavage by trouase: readily cleaves

## COc1cccc2c1C(=O)c1c(O)c3c(c(O)c1C2=O)C[C@@](O)(C(=O)CO)C[C@@H]3O[C@H]1C[C@H](N)[C@H](O)[C@H](C)O1 [doxorubicin]
[2]; passing through filter
  3000 MWCO Filt.: 81%
  10000 MWCO Filt.: 82%
  50000 MWCO Filt.: 93%
[2]; passing through filter, listed as Dox
  3000 MWCO Filt.: 81%
[2]; retained
  3000 MWCO Ret.: 10%
  10000 MWCO Ret.: 2%
  50000 MWCO Ret.: 0.5%
[3]
  Dose limiting toxicity (cardiotoxicity and myelosuppression), dose at which observed: ≥ 3 mg/kg

## CC(C)CC(=O)N[C@H](C(=O)N[C@H](C(=O)N[C@@H](CC(C)C)[C@@H](O)CC(=O)N[C@@H](C)C(=O)N[C@@H](CC(C)C)[C@@H](O)CC(=O)O)C(C)C)C(C)C [pepstatin] (Isovaleryl-VV[Sta]A[Sta]-OH)
Carcinoma cell trouase
  inhibition of trouase: not

## CC(C)C[C@H](NC(=O)[C@H]1O[C@@H]1C(=O)O)C(=O)NCCCCN=C(N)N [E64]
Carcinoma cell trouase
  inhibition of trouase: not

## CC[C@H](C)[C@H](NC(=O)CCNC(=O)CCC(=O)O)C(=O)N[C@@H](C)C(=O)N[C@@H](CC(C)C)C(=O)N[C@H]1C[C@H](O[C@H]2C[C@](O)(C(C)=O)Cc3c(O)c4c(c(O)c32)C(=O)c2c(OC)cccc2C4=O)O[C@@H](C)[C@H]1O [succinyl-βAlalleAlaLeu-Daunorubicin]
trouase
  trouase activity relative to succinyl-βAlaLeuAlaLeu-Daunorubicin: at least twenty-fold less active

Reference: patent EP1144011B1, “PRODRUG COMPOUNDS AND PROCESS FOR PREPARATION THEREOF” (Coulter Pharmaceutical, Inc., priority 1998, dated 2000)
